Columns and labels:
Assay type in all cases: cell-based
[1] = system: human aortic smooth muscle cells (hAoSMC); assay: Scratch wound assay of human aortic SMCs (cell migration); design: VSMC migration (wound reclosure) / VSMC migration versus control: dose or concentration left out as unconfirmed; conditions: for wound reclosure: 100 μM OAG
Description: (§1) Human aortic smooth muscle cells (hAoSMC) were purchased from PromoCell (Heidelberg, Germany) and cultured at 37° C. in a humidified 5% CO2 atmosphere in the recommended cell culture medium (PromoCell, Heidelberg, Germany).
For scratch wound assays, cells were seeded in 24 well plates at a density of 100,000 cells per well. After they had grown to confluence for 24 h the cell monolayer was scratched in the middle with a 200 μl pipette tip. Cells were washed with PBS and incubated in growth medium supplemented with OAG (Sigma-Aldrich, St. […] Wound area was measured directly after the scratch (t0) and after 6 h (t1), 8 h (t2) and 12 h (t3) with a phase-contrast microscope (Axiovert 100, Zeiss, Oberkochen, Germany) and assessed with ImageJ version 1.47v. Wound reclosure was measured as Δt0-t1 (6 h), Δt0-t2 (8 h), and Δt0-t3 (12 h) in pixels. Scratch assays were performed in triplicates. For radius assays, 24-well plates were coated with gelatin solution (Pelobiotech, Planegg, Germany). Culture cylinders (total diameter 4 mm, inner diameter 2 mm; Bioptechs, Butler, Pa., USA) were then placed in the middle of the well and cells were seeded at a density of 100,000 cells per well around the cylinders. 20 μL of SAR 7334 with a final concentration of 100 nM in gelatin were added to the inner of the cylinders. 1% DMSO was used as control. After 24 h of incubation cylinders were removed and pictures were acquired immediately (t0) and after 48 h (t1) using a phase-contrast microscopy system (Axiovert 100, Zeiss, Oberkochen, Germany). Wound reclosure was measured as Δt0-t1 (48 h) in pixels. Measurements were performed in duplicates.
For scratch wound assays, cells were seeded in 24 well plates at a density of 100,000 cells per well. After they had grown to confluence for 24 h the cell monolayer was scratched in the middle with a 200 μl pipette tip. Cells were washed with PBS and incubated in growth medium supplemented with OAG (Sigma-Aldrich, St. Louis, Mo., USA) at final concentration of 100 μM or SAR 7334 (Bio-Techne, Wiesbaden, Germany) at a final concentration of 100 nM. 1% DMSO was used as control. Wound area was measured directly after the scratch (t0) and after 6 h (t1), 8 h (t2) and 12 h (t3) with a phase-contrast microscope (Axiovert 100, Zeiss, Oberkochen, Germany) and assessed with ImageJ version 1.47v. Wound reclosure was measured as Δt0-t1 (6 h), Δt0-t2 (8 h), and Δt0-t3 (12 h) in pixels. Scratch assays were performed in triplicates. For radius assays, 24-well plates were coated with gelatin solution (Pelobiotech, Planegg, Germany). Culture cylinders (total diameter 4 mm, inner diameter 2 mm; Bioptechs, Butler, Pa., USA) were then placed in the middle of the well and cells were seeded at a density of 100,000 cells per well around the cylinders. 20 μL of SAR 7334 with a final concentration of 100 nM in gelatin were added to the inner of the cylinders. 1% DMSO was used as control. After 24 h of incubation cylinders were removed and pictures were acquired immediately (t0) and after 48 h (t1) using a phase-contrast microscopy system (Axiovert 100, Zeiss, Oberkochen, Germany). Wound reclosure was measured as Δt0-t1 (48 h) in pixels. Measurements were performed in duplicates.

[2] = system: human aortic smooth muscle cells (hAoSMC); assay: Cell proliferation assay, BrdU ELISA; conditions: 100 μM OAG; vehicle 0.08±0.03, p<0.01
Description: as §1
Cell proliferation was assessed using of a colorimetric bromodeoxyuridine (BrdU) enzyme-linked immunosorbent assay (ELISA) according to manufacturer's protocol (Roche Applied Science, Penzberg, Germany). Briefly, cells were seeded in 96 well plates at a density of 10,000 cells per well in starving medium, i.e., lacking FBS and growth factors. After 24 h, the starving medium was replaced by growth medium which was either supplemented with 1-Oleoyl-2-acetyl-sn-glycerol (OAG; Sigma-Aldrich, St. Louis, Mo., USA) at a final concentration of 100 μM, SAR 7334 (Tocris Bioscience, Bristol, UK) at a final concentration of 100 nM or with 1% of DMSO which was used as vehicle. After incubation for another 24 h, 10 μl of BrdU solution were added. Absorbance was measured at 370 nm with a reference wavelength of 492 nm in the Infinite M200 PRO microplate reader using the iControl v1.10 software (both Tecan Group, Männedorf, Switzerland) after further 24 h. Measurements were performed in triplicates.

[3] = system: human aortic smooth muscle cells (hAoSMC); assay: Radius migration assay of human aortic SMC on SAR7334 coating; conditions: culture dish coated with SAR7334 (100 nM in gelatin), 48 h
Description: as §1
For scratch wound assays, cells were seeded in 24 well plates at a density of 100,000 cells per well. After they had grown to confluence for 24 h the cell monolayer was scratched in the middle with a 200 μl pipette tip. Cells were washed with PBS and incubated in growth medium supplemented with OAG (Sigma-Aldrich, St. Louis, Mo., USA) at final concentration of 100 μM or SAR 7334 (Bio-Techne, Wiesbaden, Germany) at a final concentration of […]. 1% DMSO was used as control. Wound area was measured directly after the scratch (t0) and after 6 h (t1), 8 h (t2) and 12 h (t3) with a phase-contrast microscope (Axiovert 100, Zeiss, Oberkochen, Germany) and assessed with ImageJ version 1.47v. Wound reclosure was measured as Δt0-t1 (6 h), Δt0-t2 (8 h), and Δt0-t3 (12 h) in pixels. […] Wound reclosure was measured as Δt0-t1 (48 h) in pixels. […]
For scratch wound assays, cells were seeded in 24 well plates at a density of 100,000 cells per well. […] Wound area was measured directly after the scratch (t0) and after 6 h (t1), 8 h (t2) and 12 h (t3) with a phase-contrast microscope (Axiovert 100, Zeiss, Oberkochen, Germany) and assessed with ImageJ version 1.47v. […]

| Structure (SMILES) | wound reclosure ([1]; 12 hours after scratch, vehicle 156.93±7.06, p=0.01) | wound reclosure ([1]; eight hours after scratch, vehicle 69.05±7.03, p=0.01) | proliferation of human VSMCs (BrdU ELISA) [2] | local migration versus control culture [3] | VSMC migration versus control ([1]; 6 hours after injury) | VSMC migration versus control ([1]; 8 hours after injury) | VSMC migration (wound reclosure) ([1]; 12 hours after scratch, control 130.0±10.6, p=0.04) |
| --- | --- | --- | --- | --- | --- | --- | --- |
| CCCCCCCC/C=C\CCCCCCCC(=O)OC[C@H](CO)OC(C)=O [OAG, 1-oleoyl-2-acetyl-sn-glycerol] | 179.14±3.61 10^3 pixels | 93.09±3.67 10^3 pixels | 0.31±0.07 absorbance units |  |  |  |  |
| N#Cc1ccc(O[C@@H]2c3ccccc3C[C@H]2N2CCC[C@@H](N)C2)c(Cl)c1 [SAR7334] |  |  |  | reduced local migration | comparable to control levels | comparable to control levels | 111.4±15.5 10^3 pixels |

Source: US20230137816A1, “ADMINISTRATION OF CALCIUM CHANNEL TRPC6 INHIBITORS USING BALLOONS, STENTS OR OTHER MEDICAL DEVICES” (DEUTSCHES HERZZENTRUM MUENCHEN DES FREISTAATES BAYERN, priority 2020, published 2023)
